How the values were obtained:
[1] = test system: mRNA expressed from the genes (A) to (D) in rat liver; experiment: Behavior of genes (mRNA expression level, oligo-DNA microarray) in rat liver after 28-day oral administration; assay type: in vivo; details: mRNA vs vehicle control group
Outline: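 Liver mRNA measured by oligo-DNA microarray after 28 days of once-daily oral gavage in 5-week-old male F344 rats (n=4 per group), with vehicle controls given equal solvent volume. Significance threshold: 1.5-fold up or down versus control, with changes opposite in direction to other carcinogens counted as not significant.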

liver = details: in vivo; cited from earlier work
rodent = details: in vivo; cited from earlier work
[2] = gene group (A), Unigene No. Rn.167075
[3] = gene group (C), Unigene No. Rn.120914

c1ccc2cc3c(ccc4ccccc43)cc2c1 [TS046, Benz[a]anthracene]
Behavior of gene caused by administration of chemical substance, Gene No. 4846 ([1]; gene group (A), Unigene No. Rn.144554): −
Behavior of gene caused by administration of chemical substance, Gene No. 2026 [1, 2]: +
Behavior of gene caused by administration of chemical substance, Gene No. 4218 [1, 2]: −
Behavior of gene caused by administration of chemical substance, Gene No. 6182 ([1]; gene group (A), Unigene No. Rn.5834): +
Behavior of gene caused by administration of chemical substance, Gene No. 5600 ([1]; gene group (A), Unigene No. Rn.9836): −
Behavior of gene caused by administration of chemical substance, Gene No. 1494 ([1]; gene group (B), Unigene No. Rn.1430): −
Behavior of gene caused by administration of chemical substance, Gene No. 2045 ([1]; gene group (B), Unigene No. Rn.19329): −
Behavior of gene caused by administration of chemical substance, Gene No. 2203 ([1]; gene group (B), Unigene No. Rn.21240): +
Behavior of gene caused by administration of chemical substance, Gene No. 533 ([1]; gene group (C), Unigene No. Rn.106184): −
Behavior of gene caused by administration of chemical substance, Gene No. 725 ([1]; gene group (C), Unigene No. Rn.108075): +
Behavior of gene caused by administration of chemical substance, Gene No. 1163 ([1]; gene group (C), Unigene No. Rn.11766): +
Behavior of gene caused by administration of chemical substance, Gene No. 4973 ([1]; gene group (C), Unigene No. Rn.118529): +
Behavior of gene caused by administration of chemical substance, Gene No. 4095 ([1]; gene group (C), Unigene No. Rn.119024): +
Behavior of gene caused by administration of chemical substance, Gene No. 1334 [1, 3]: −
Behavior of gene caused by administration of chemical substance, Gene No. 6620 [1, 3]: −
Behavior of gene caused by administration of chemical substance, Gene No. 6303 ([1]; gene group (C), Unigene No. Rn.123063): −
Behavior of gene caused by administration of chemical substance, Gene No. 5878 ([1]; gene group (C), Unigene No. Rn.143213): +
Behavior of gene caused by administration of chemical substance, Gene No. 1131 ([1]; gene group (C), Unigene No. Rn.144946): +
Behavior of gene caused by administration of chemical substance, Gene No. 1562 ([1]; gene group (C), Unigene No. Rn.14744): −
Behavior of gene caused by administration of chemical substance, Gene No. 1741 ([1]; gene group (C), Unigene No. Rn.1647): +
Behavior of gene caused by administration of chemical substance, Gene No. 893 ([1]; gene group (C), Unigene No. Rn.164817): +
Behavior of gene caused by administration of chemical substance, Gene No. 6026 ([1]; gene group (C), Unigene No. Rn.167685): −
Behavior of gene caused by administration of chemical substance, Gene No. 154 ([1]; gene group (C), Unigene No. Rn.185941): +
Behavior of gene caused by administration of chemical substance, Gene No. 1993 ([1]; gene group (C), Unigene No. Rn.18728): +
Behavior of gene caused by administration of chemical substance, Gene No. 813 ([1]; gene group (C), Unigene No. Rn.201760): +
Behavior of gene caused by administration of chemical substance, Gene No. 2494 ([1]; gene group (C), Unigene No. Rn.23969): −
Behavior of gene caused by administration of chemical substance, Gene No. 2546 ([1]; gene group (C), Unigene No. Rn.24561): +
Behavior of gene caused by administration of chemical substance, Gene No. 3776 ([1]; gene group (C), Unigene No. Rn.43232): +
Behavior of gene caused by administration of chemical substance, Gene No. 3929 ([1]; gene group (C), Unigene No. Rn.4620): −
Behavior of gene caused by administration of chemical substance, Gene No. 1119 ([1]; gene group (C), Unigene No. Rn.9757): +
Behavior of gene caused by administration of chemical substance, Gene No. 6742 ([1]; gene group (C), Unigene No. Rn.9779): +
Behavior of gene caused by administration of chemical substance, Gene No. 5634 ([1]; gene group (C), Unigene No. Rn.9862): +
Behavior of gene caused by administration of chemical substance, Gene No. 5726 ([1]; gene group (D), Unigene No. Rn.9939): +
Liver carcinogenicity (liver): Cr−
Carcinogenicity (rodent): C+

Reference: patent US20110039721A1, “METHOD FOR PREDICTION ABOUT CARCINOGENICITY OF SUBSTANCE IN RODENT” (Chemicals Evaluation and Research Institute, priority 2007, published 2011)
